Columns and labels:
Type in all cases: in vivo
[1] = system: slender amaranth (Amaranthus viridis L.); experiment: Test Example 3: herbicidal effect by application to upland field (foliage treatment); conditions: foliage treatment, 1,000 g active ingredient per 1 hectare, 14th day after application, greenhouse
Method: (§1) [table] Test Example 3 Test on Herbicidal Effect by Application to Upland Field In a 80 cm2 plastic pot, field soil was filled. Seeds of barnyardgrass (Echinochloa crus-galli (L.) P. Beauv. var. crus-galli), green foxtail (Setaria viridis (L.) P. Beauv.), velvetleaf (Abutilon theophrasti medicus), and slender amaranth (Amaranthus viridis L.) were sown and allowed to grow for two weeks in a greenhouse. Thereafter, the wettable powder prepared according to Formulation Example 1 was diluted in water and a 1,000 liter equivalent amount per 1 hectare so that the active ingredient becomes 1,000 g per 1 hectare was sprayed using a small sprayer from a top of the plants through its entire body for foliage treatment. Then, on the 14th day after the application to the plants grew in a greenhouse, the herbicidal effect was examined in accordance with a standard shown in Table 34.

[2] = system: barnyardgrass (Echinochloa crus-galli (L.) P. Beauv. var. crus-galli); experiment: as above; conditions: foliage treatment, 1,000 g active ingredient per 1 hectare, 14th day after application, greenhouse
Method: as §1

[3] = system: green foxtail (Setaria viridis (L.) P. Beauv.); experiment: as above; conditions: foliage treatment, 1,000 g active ingredient per 1 hectare, 14th day after application, greenhouse
Method: as §1

[4] = system: velvetleaf (Abutilon theophrasti medicus); experiment: as above; conditions: foliage treatment, 1,000 g active ingredient per 1 hectare, 14th day after application, greenhouse
Method: as §1

[5] = system: Japanese bulrush (Scirpus juncoides Roxb.); experiment: Test Example 1: herbicidal effect by soil application to paddy field; conditions: paddy field soil application; active ingredient 1,000 g per 1 hectare; wettable powder added dropwise to water surface the day after sowing; examined on the 21st day after application
Procedure, shortened: (§2)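 Plants were sown in flooded (3 cm) paddy soil and evaluated for herbicidal effect 21 days after soil application in a greenhouse.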

[6] = system: heartshape false pickerelweed (Monochoria vaginalis (Burm.f.) C.Presl); experiment: as above; conditions: paddy field soil application; active ingredient 1,000 g per 1 hectare; wettable powder added dropwise to water surface the day after sowing; examined on the 21st day after application
Procedure, shortened: as §2

[7] = system: early watergrass (Echinochloa oryzicola Vasing); experiment: as above; conditions: paddy field soil application; active ingredient 1,000 g per 1 hectare; wettable powder added dropwise to water surface the day after sowing; examined on the 21st day after application
Procedure, shortened: as §2

| SMILES | herbicidal effect, Slender Amaranth [1] | herbicidal effect, Barnyardgrass [2] | herbicidal effect, Green Foxtail [3] | herbicidal effect, Velvetleaf [4] | herbicidal effect, Scirpus juncoides Roxb. [5] | herbicidal effect, Monochoria vaginalis (Burm. f.) C. Presl [6] | herbicidal effect, Echinochloa oryzicola Vasing [7] |
| --- | --- | --- | --- | --- | --- | --- | --- |
| CCn1c(C(F)F)ccc(C(=O)C2=C(O)CCCC2=O)c1=O [I-222] | 5 (90% or more of herbicidal effect and crop phytotoxicity) | 5 (90% or more of herbicidal effect and crop phytotoxicity) | 4 (70 to less than 90% of herbicidal effect and crop phytotoxicity) | 5 (90% or more of herbicidal effect and crop phytotoxicity) | 5 (90% or more of herbicidal effect and crop phytotoxicity) | 5 (90% or more of herbicidal effect and crop phytotoxicity) | 5 (90% or more of herbicidal effect and crop phytotoxicity) |
| CCCN(CCC)n1c(C(F)(F)F)ccc(C(=O)C2=C(O)CCCC2=O)c1=O [I-173] | 4 (70 to less than 90% of herbicidal effect and crop phytotoxicity) | 4 (70 to less than 90% of herbicidal effect and crop phytotoxicity) | 5 (90% or more of herbicidal effect and crop phytotoxicity) | 5 (90% or more of herbicidal effect and crop phytotoxicity) | 5 (90% or more of herbicidal effect and crop phytotoxicity) | 5 (90% or more of herbicidal effect and crop phytotoxicity) | 5 (90% or more of herbicidal effect and crop phytotoxicity) |
| Cn1ncc(C(=O)c2ccc(C(F)(F)F)n(CCC[S+](C)[O-])c2=O)c1O (centres unmarked) [IV-58] | 5 (90% or more of herbicidal effect and crop phytotoxicity) | 5 (90% or more of herbicidal effect and crop phytotoxicity) | 4 (70 to less than 90% of herbicidal effect and crop phytotoxicity) | 4 (70 to less than 90% of herbicidal effect and crop phytotoxicity) | 4 (70 to less than 90% of herbicidal effect and crop phytotoxicity) | 4 (70 to less than 90% of herbicidal effect and crop phytotoxicity) | 5 (90% or more of herbicidal effect and crop phytotoxicity) |
| CC(C)=CCCn1c(C(F)(F)F)ccc(C(=O)c2cnn(C)c2O)c1=O [IV-15] | 5 (90% or more of herbicidal effect and crop phytotoxicity) | 4 (70 to less than 90% of herbicidal effect and crop phytotoxicity) | 5 (90% or more of herbicidal effect and crop phytotoxicity) | 5 (90% or more of herbicidal effect and crop phytotoxicity) | 5 (90% or more of herbicidal effect and crop phytotoxicity) | 5 (90% or more of herbicidal effect and crop phytotoxicity) | 5 (90% or more of herbicidal effect and crop phytotoxicity) |
| Cn1ncc(C(=O)c2ccc(C(F)(F)F)n(-c3ccc(Cl)cc3)c2=O)c1O [IV-63] | 5 (90% or more of herbicidal effect and crop phytotoxicity) | 4 (70 to less than 90% of herbicidal effect and crop phytotoxicity) | 4 (70 to less than 90% of herbicidal effect and crop phytotoxicity) | 5 (90% or more of herbicidal effect and crop phytotoxicity) | 5 (90% or more of herbicidal effect and crop phytotoxicity) | 5 (90% or more of herbicidal effect and crop phytotoxicity) | 5 (90% or more of herbicidal effect and crop phytotoxicity) |
